± gives the standard deviation of the averaged measurements.
Tests used:
[1] = compound: C[C@H](CN(C)C)Oc1nc(Nc2cc3cccc(Cl)c3cn2)cnc1C#N; experiment: surviving fraction relative to DMSO-only wells; higher = less growth inhibition; settings: exposure time: 5 days
How it was run: (§1)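 At 250–500 cells per well in 384-well plates, log-phase tumour cell lines were seeded and, 24 hours on, exposed continuously for five days to inhibitors at 0.5, 1, 5, 10, 50, 100, 500 and 1000 nM. Viability readout was CellTiter-Glo luminescence, reported as surviving fraction normalised to the median of DMSO-only wells.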

BMN-673 = compound: Cn1ncnc1[C@H]1c2n[nH]c(=O)c3cc(F)cc(c23)N[C@@H]1c1ccc(F)cc1 [BMN-673]; experiment: as above; settings: exposure time: 5 days
How it was run: as §1

Test System | surviving fraction ([1]; 0.5 nM) | surviving fraction ([1]; 1 nM) | surviving fraction ([1]; 5 nM) | surviving fraction ([1]; 10 nM) | surviving fraction ([1]; 50 nM) | surviving fraction ([1]; 100 nM) | surviving fraction ([1]; 500 nM) | surviving fraction ([1]; 1000 nM) | surviving fraction (BMN-673; 0.5 nM) | surviving fraction (BMN-673; 1 nM) | surviving fraction (BMN-673; 5 nM) | surviving fraction (BMN-673; 10 nM) | surviving fraction (BMN-673; 50 nM) | surviving fraction (BMN-673; 100 nM) | surviving fraction (BMN-673; 500 nM) | surviving fraction (BMN-673; 1000 nM)
MDAMB453 BREAST | 1.04 ± 0.025 | 1.09 ± 0.063 | 1.11 ± 0.058 | 1.06 ± 0.025 | 1.1 ± 0.051 | 1.1 ± 0.056 | 0.596 ± 0.074 | 0.273 ± 0.012 | 1.1 ± 0.11 | 1.03 ± 0.054 | 1.12 ± 0.13 | 0.881 ± 0.057 | 0.724 ± 0.056 | 0.57 ± 0.029 | 0.454 ± 0.019 | 0.495 ± 0.044
MDAMB436 BREAST | 0.927 ± 0.072 | 0.927 ± 0.15 | 0.963 ± 0.14 | 0.959 ± 0.13 | 0.953 ± 0.11 | 0.808 ± 0.14 | 0.641 ± 0.1 | 0.451 ± 0.077 | 0.734 ± 0.039 | 0.66 ± 0.056 | 0.481 ± 0.023 | 0.434 ± 0.031 | 0.413 ± 0.032 | 0.369 ± 0.026 | 0.349 ± 0.032 | 0.332 ± 0.02
SIHA CERVIX | 0.955 ± 0.041 | 0.981 ± 0.033 | 1.06 ± 0.037 | 1.05 ± 0.061 | 1.16 ± 0.014 | 1.11 ± 0.1 | 0.95 ± 0.092 | 1 ± 0.033 | 1.01 ± 0.055 | 1.03 ± 0.053 | 1.15 ± 0.062 | 1.05 ± 0.013 | 0.929 ± 0.038 | 0.784 ± 0.13 | 0.602 ± 0.035 | 0.454 ± 0.041
143B BONE | 0.939 ± 0.1 | 1.08 ± 0.053 | 1.08 ± 0.035 | 1.05 ± 0.012 | 1.026 ± 0.0092 | 1.05 ± 0.024 | 0.519 ± 0.031 | 0.078 ± 0.021 | 1.08 ± 0.047 | 1.11 ± 0.086 | 1.1 ± 0.054 | 1.09 ± 0.073 | 1.11 ± 0.16 | 1.05 ± 0.064 | 0.733 ± 0.06 | 0.528 ± 0.052
U2OS BONE | 1.04 ± 0.053 | 1 ± 0.039 | 1.02 ± 0.027 | 0.993 ± 0.081 | 1.05 ± 0.043 | 1.03 ± 0.025 | 0.277 ± 0.028 | 0.159 ± 0.013 | 0.9887 ± 0.0081 | 0.994 ± 0.055 | 0.969 ± 0.018 | 0.915 ± 0.029 | 0.834 ± 0.026 | 0.732 ± 0.029 | 0.658 ± 0.029 | 0.647 ± 0.038
COLO320DM LARGE INTESTINE | 1.04 ± 0.17 | 1.07 ± 0.09 | 1.01 ± 0.069 | 1.13 ± 0.068 | 1.06 ± 0.066 | 0.896 ± 0.084 | 0.235 ± 0.027 | 0.154 ± 0.027 | 1.16 ± 0.049 | 1.1 ± 0.11 | 1.01 ± 0.038 | 0.951 ± 0.04 | 0.781 ± 0.061 | 0.704 ± 0.059 | 0.606 ± 0.0097 | 0.5533 ± 0.0029
VCAP PROSTATE | 0.969 ± 0.098 | 1.03 ± 0.14 | 1.1 ± 0.11 | 1.08 ± 0.11 | 1.12 ± 0.033 | 1.01 ± 0.16 | 0.715 ± 0.12 | 0.35 ± 0.039 | 1.11 ± 0.084 | 0.947 ± 0.086 | 0.995 ± 0.03 | 0.976 ± 0.08 | 0.758 ± 0.029 | 0.711 ± 0.12 | 0.397 ± 0.029 | 0.385 ± 0.017
YAMATO SYNOVIAL | 1.12 ± 0.038 | 1.24 ± 0.086 | 1.17 ± 0.05 | 1.2 ± 0.13 | 1.18 ± 0.067 | 1.18 ± 0.037 | 0.806 ± 0.052 | 0.622 ± 0.074 | 1.08 ± 0.09 | 1.05 ± 0.035 | 1.05 ± 0.07 | 0.852 ± 0.039 | 0.788 ± 0.014 | 0.675 ± 0.035 | 0.503 ± 0.029 | 0.452 ± 0.013
HCC202 BREAST | 1.08 ± 0.39 | 1.03 ± 0.41 | 1.22 ± 0.065 | 1.01 ± 0.022 | 0.984 ± 0.052 | 0.886 ± 0.34 | 0.413 ± 0.071 | 0.376 ± 0.04 | 0.932 ± 0.39 | 1.15 ± 0.44 | 0.688 ± 0.18 | 0.769 ± 0.34 | 0.661 ± 0.13 | 0.566 ± 0.14 | 0.81 ± 0.05 | 0.671 ± 0.11
SCC003 HEADNECK | 1.04 ± 0.09 | 1.06 ± 0.022 | 1.06 ± 0.055 | 1.05 ± 0.054 | 1.05 ± 0.079 | 1.1 ± 0.018 | 0.848 ± 0.011 | 0.97 ± 0.12 | 1.06 ± 0.053 | 1.07 ± 0.035 | 1.04 ± 0.015 | 1.03 ± 0.044 | 0.913 ± 0.019 | 0.713 ± 0.059 | 0.588 ± 0.012 | 0.475 ± 0.066
KPD BONE | 1.04 ± 0.068 | 0.982 ± 0.083 | 1.03 ± 0.1 | 1.05 ± 0.11 | 1.06 ± 0.054 | 0.979 ± 0.025 | 0.4 ± 0.025 | 0.224 ± 0.028 | 0.971 ± 0.046 | 0.877 ± 0.053 | 0.814 ± 0.045 | 0.463 ± 0.28 | 0.531 ± 0.03 | 0.437 ± 0.02 | 0.338 ± 0.01 | 0.3337 ± 0.0032
HELA CERVIX | 1.01 ± 0.019 | 1.03 ± 0.043 | 0.999 ± 0.058 | 0.988 ± 0.079 | 1.11 ± 0.037 | 1.07 ± 0.048 | 1.09 ± 0.085 | 0.831 ± 0.029 | 1 ± 0.045 | 1 ± 0.058 | 1.07 ± 0.038 | 1.031 ± 0.0089 | 1.1 ± 0.11 | 1.14 ± 0.11 | 0.736 ± 0.037 | 0.606 ± 0.035
C33A CERVIX | 0.856 ± 0.057 | 0.979 ± 0.11 | 0.903 ± 0.041 | 0.994 ± 0.094 | 0.97 ± 0.074 | 0.937 ± 0.14 | 0.524 ± 0.04 | 0.814 ± 0.054 | 0.995 ± 0.028 | 0.968 ± 0.019 | 0.744 ± 0.079 | 0.655 ± 0.046 | 0.422 ± 0.035 | 0.332 ± 0.051 | 0.19 ± 0.015 | 0.172 ± 0.023
HU09 BONE | 1.05 ± 0.11 | 0.964 ± 0.017 | 1.02 ± 0.086 | 1.02 ± 0.092 | 1.07 ± 0.13 | 0.903 ± 0.12 | 0.437 ± 0.063 | 0.261 ± 0.054 | 0.97 ± 0.066 | 0.978 ± 0.056 | 0.898 ± 0.067 | 0.812 ± 0.11 | 0.486 ± 0.046 | 0.437 ± 0.038 | 0.104 ± 0.018 | 0.058 ± 0.008
SCC47 HEADNECK | 1.06 ± 0.052 | 1.06 ± 0.091 | 1.06 ± 0.065 | 1.11 ± 0.054 | 1.14 ± 0.059 | 1.12 ± 0.1 | 0.671 ± 0.049 | 0.925 ± 0.0085 | 1.1 ± 0.089 | 1.13 ± 0.13 | 1.13 ± 0.015 | 1.12 ± 0.058 | 1.12 ± 0.039 | 1.03 ± 0.062 | 0.937 ± 0.1 | 0.784 ± 0.1
SUM149.B1*.S BREAST | 1.06 ± 0.066 | 1.06 ± 0.023 | 1.03 ± 0.055 | 1.09 ± 0.029 | 1.11 ± 0.029 | 1.05 ± 0.029 | 0.941 ± 0.026 | 0.492 ± 0.024 | 1.11 ± 0.036 | 1.03 ± 0.0064 | 1.05 ± 0.058 | 0.931 ± 0.059 | 0.808 ± 0.055 | 0.739 ± 0.063 | 0.451 ± 0.075 | 0.33 ± 0.052
LM7 BONE | 0.96 ± 0.013 | 0.916 ± 0.015 | 0.945 ± 0.068 | 1.02 ± 0.054 | 1.06 ± 0.086 | 0.99 ± 0.099 | 0.835 ± 0.11 | 0.528 ± 0.077 | 0.975 ± 0.042 | 0.987 ± 0.068 | 0.764 ± 0.051 | 0.573 ± 0.028 | 0.395 ± 0.027 | 0.312 ± 0.028 | 0.227 ± 0.015 | 0.197 ± 0.024
OSHN BONE | 1.06 ± 0.015 | 1.08 ± 0.025 | 1.07 ± 0.015 | 1.068 ± 0.0038 | 1.13 ± 0.029 | 1.1 ± 0.019 | 0.709 ± 0.1 | 0.11 ± 0.019 | 1.08 ± 0.024 | 1.04 ± 0.016 | 0.996 ± 0.023 | 0.9107 ± 0.004 | 0.742 ± 0.011 | 0.573 ± 0.081 | 0.197 ± 0.012 | 0.145 ± 0.009
SYO1 SYNOVIAL | 0.955 ± 0.038 | 0.963 ± 0.015 | 0.969 ± 0.017 | 0.941 ± 0.023 | 0.97 ± 0.026 | 0.835 ± 0.015 | 0.34 ± 0.0094 | 0.197 ± 0.014 | 0.855 ± 0.052 | 0.783 ± 0.023 | 0.499 ± 0.0035 | 0.336 ± 0.0059 | 0.168 ± 0.0078 | 0.125 ± 0.0048 | 0.0544 ± 0.0063 | 0.0423 ± 0.00058
OS25HAL BONE | 0.972 ± 0.013 | 0.965 ± 0.034 | 1.049 ± 0.0085 | 0.979 ± 0.024 | 1.07 ± 0.057 | 1.09 ± 0.014 | 0.615 ± 0.082 | 0.217 ± 0.023 | 1.1 ± 0.034 | 1.01 ± 0.037 | 0.96 ± 0.063 | 0.994 ± 0.017 | 0.91 ± 0.06 | 0.812 ± 0.014 | 0.327 ± 0.02 | 0.178 ± 0.021
